Patent publication US20200370087A1, “METHOD FOR DETERMINING MICROBIAL SUSCEPTIBILITY TO ANTIBIOTIC AGENTS” (Ascilion AB, priority 2017, published 2020)

Experiments:
[1] = tested on: Enterococcus faecalis (ATCC 29212); test: Glucose consumption susceptibility test, blood culture diluted in MHB with glucose (Example 1); assay type: cell-based; parameters: glucose concentration, t = 0 / glucose concentration, t = 60 / glucose concentration, t = 120 / glucose concentration, t = 180 / glucose concentration, t = 240 / dC/dT (rate of change in glucose concentration): unit not given here; conditions: for F = the rate of change in glucose concentration in relation to the reference / dC/dT (rate of change in glucose concentration) / glucose concentration, t = 0 / glucose concentration, t = 60 / glucose concentration, t = 120 / glucose concentration, t = 180 / glucose concentration, t = 240: E. faecalis; for glucose concentration, t = 0: 0 minutes; for glucose concentration, t = 60: 60 minutes; for glucose concentration, t = 120: 120 minutes; for glucose concentration, t = 180: 180 minutes; for glucose concentration, t = 240: 240 minutes
Experimental: (§1) Strains of Escherichia coli (ATCC 25922), Enterococcus faecalis (ATCC 29212) and Staphylococcus aureus (ATCC 29213) were inoculated in blood culture bottles (SVA, Uppsala, Sweden) and cultivated according to the manufacturer's instructions until positive.
(§2) Medium from each blood culture bottle was diluted 1:100 with cation adjusted Mueller-Hinton broth (SVA, Uppsala, Sweden) supplemented with glucose to a concentration of 1.0 mg/mL.
(§3) Glucose concentrations were measured at 0, 60, 120, 180, and 240 minutes using a WaveSense Jazz glucometer (AgaMatrix, Inc., Salem, N.H., USA) with accompanying test strips.
(§4) Susceptibility scores corresponding to MIC values were calculated as described above. A 80% threshold was applied, i.e. the lowest concentration of antibiotic that entailed a rate of change in glucose concentration that was equal to or less than 80% of the reference was selected as the Minimal Inhibitory Concentration. The rate of change was calculated between the measurements at 60 and 180 minutes.

[2] = tested on: Staphylococcus aureus (ATCC 29213); test: as above; assay type: cell-based; parameters: glucose concentration, t = 0 / glucose concentration, t = 60 / glucose concentration, t = 120 / glucose concentration, t = 180 / glucose concentration, t = 240 / dC/dT (rate of change in glucose concentration): unit not given here; conditions: for F = the rate of change in glucose concentration in relation to the reference / dC/dT (rate of change in glucose concentration) / glucose concentration, t = 0 / glucose concentration, t = 60 / glucose concentration, t = 120 / glucose concentration, t = 180 / glucose concentration, t = 240: S. aureus; for glucose concentration, t = 0: 0 minutes; for glucose concentration, t = 60: 60 minutes; for glucose concentration, t = 120: 120 minutes; for glucose concentration, t = 180: 180 minutes; for glucose concentration, t = 240: 240 minutes
Experimental: as §1, §2, §3, §4

[3] = tested on: Staphylococcus aureus ATCC 29213; conditions: S.aureus, cited from earlier work

## gentamicin
[1]; antibiotic 0.25 μg/mL
  F = the rate of change in glucose concentration in relation to the reference: 144%
  dC/dT (rate of change in glucose concentration): 52
  glucose concentration, t = 0: 142
  glucose concentration, t = 60: 156
  glucose concentration, t = 120: 143
  glucose concentration, t = 180: 87
[1]; antibiotic 0.5 μg/mL
  F = the rate of change in glucose concentration in relation to the reference: 148%
  dC/dT (rate of change in glucose concentration): 53
  glucose concentration, t = 0: 146
  glucose concentration, t = 60: 160
  glucose concentration, t = 120: 138
  glucose concentration, t = 180: 97
[1]; antibiotic 1 μg/mL
  F = the rate of change in glucose concentration in relation to the reference: 106%
  dC/dT (rate of change in glucose concentration): 38
  glucose concentration, t = 0: 145
  glucose concentration, t = 60: 150
  glucose concentration, t = 120: 138
  glucose concentration, t = 180: 100
  glucose concentration, t = 240: 36
[1]; antibiotic 2 μg/mL
  F = the rate of change in glucose concentration in relation to the reference: 75%
  dC/dT (rate of change in glucose concentration): 27
  glucose concentration, t = 0: 147
  glucose concentration, t = 60: 156
  glucose concentration, t = 120: 143
  glucose concentration, t = 180: 110
  glucose concentration, t = 240: 75
[1]; antibiotic 4 μg/mL
  F = the rate of change in glucose concentration in relation to the reference: 46%
  dC/dT (rate of change in glucose concentration): 17
  glucose concentration, t = 0: 147
  glucose concentration, t = 60: 154
  glucose concentration, t = 120: 151
  glucose concentration, t = 180: 118
  glucose concentration, t = 240: 104
[1]; antibiotic 8 μg/mL
  F = the rate of change in glucose concentration in relation to the reference: 14%
  dC/dT (rate of change in glucose concentration): 5
  glucose concentration, t = 0: 143
  glucose concentration, t = 60: 155
  glucose concentration, t = 120: 134
  glucose concentration, t = 180: 136
  glucose concentration, t = 240: 140
[1]; antibiotic 16 μg/mL
  F = the rate of change in glucose concentration in relation to the reference: 18%
  dC/dT (rate of change in glucose concentration): 6
  glucose concentration, t = 0: 147
  glucose concentration, t = 60: 160
  glucose concentration, t = 120: 152
  glucose concentration, t = 180: 155
[1]; antibiotic 32 μg/mL
  F = the rate of change in glucose concentration in relation to the reference: 3%
  dC/dT (rate of change in glucose concentration): 1
  glucose concentration, t = 0: 143
  glucose concentration, t = 60: 151
  glucose concentration, t = 180: 142
  glucose concentration, t = 240: 148
[1]; E.faecalis, 80% threshold of reference rate of change, 60 to 180 minutes, N/A = not susceptible, no MIC value can be calculated
  MIC, Measured: 2 µg/mL
[2]; antibiotic 0.25 μg/mL
  F = the rate of change in glucose concentration in relation to the reference: 66%
  dC/dT (rate of change in glucose concentration): 22
  glucose concentration, t = 0: 143
  glucose concentration, t = 60: 146
  glucose concentration, t = 120: 140
  glucose concentration, t = 180: 102
  glucose concentration, t = 240: 55
[2]; antibiotic 0.5 μg/mL
  F = the rate of change in glucose concentration in relation to the reference: 57%
  dC/dT (rate of change in glucose concentration): 19
  glucose concentration, t = 0: 143
  glucose concentration, t = 60: 154
  glucose concentration, t = 120: 137
  glucose concentration, t = 180: 116
  glucose concentration, t = 240: 78
[2]; antibiotic 1 μg/mL
  F = the rate of change in glucose concentration in relation to the reference: 30%
  dC/dT (rate of change in glucose concentration): 10
  glucose concentration, t = 0: 137
  glucose concentration, t = 60: 154
  glucose concentration, t = 120: 146
  glucose concentration, t = 180: 134
  glucose concentration, t = 240: 119
[2]; antibiotic 2 μg/mL
  F = the rate of change in glucose concentration in relation to the reference: 12%
  dC/dT (rate of change in glucose concentration): 4
  glucose concentration, t = 0: 144
  glucose concentration, t = 60: 154
  glucose concentration, t = 180: 146
  glucose concentration, t = 240: 148
[2]; antibiotic 4 μg/mL
  F = the rate of change in glucose concentration in relation to the reference: 10%
  dC/dT (rate of change in glucose concentration): 4
  glucose concentration, t = 60: 157
  glucose concentration, t = 120: 147
  glucose concentration, t = 180: 150
  glucose concentration, t = 240: 149
[2]; antibiotic 8 μg/mL
  F = the rate of change in glucose concentration in relation to the reference: 0%
  dC/dT (rate of change in glucose concentration): 0
  glucose concentration, t = 0: 142
  glucose concentration, t = 60: 154
  glucose concentration, t = 120: 150
  glucose concentration, t = 180: 154
  glucose concentration, t = 240: 140
[2]; antibiotic 16 μg/mL
  F = the rate of change in glucose concentration in relation to the reference: 0%
  dC/dT (rate of change in glucose concentration): 0
  glucose concentration, t = 0: 139
  glucose concentration, t = 60: 145
  glucose concentration, t = 120: 150
  glucose concentration, t = 180: 145
  glucose concentration, t = 240: 145
[2]; antibiotic 32 μg/mL
  F = the rate of change in glucose concentration in relation to the reference: 3%
  dC/dT (rate of change in glucose concentration): 1
  glucose concentration, t = 0: 144
  glucose concentration, t = 60: 148
  glucose concentration, t = 120: 145
  glucose concentration, t = 180: 146
  glucose concentration, t = 240: 145
[2]; S.aureus, 80% threshold of reference rate of change, 60 to 180 minutes
  MIC, Measured: 0.25 µg/mL
[3]; range obtained by EUCAST from ISO 20776-1: 2006
  MIC, EUCAST, range in parentheses: (0.125-1) ug/mL
[3]; reference value, Mueller-Hinton agar, incubation 18±2 h
  MIC, EUCAST: 0.25 to 0.5 µg/mL
